Data: patent publication US11142515B2, “Pyrazolyl-ureas as kinase inhibitors” (RESPIVERT LIMITED, priority 2014, dated 2021)

Key:
[1] = target: T1, p38 MAPKα isoform (MAPK14) (Homo sapiens, UniProt Q16539); assay: p38 MAPKα enzyme inhibition (Z-LYTE FRET); format: biochemical; settings: Table 2B, unit inferred; read-out: p38 MAPKα (Enzyme Profile)
T1 construct: purchased Life Technologies
Procedure: (§1) The enzyme inhibitory activities of compounds disclosed herein were determined by FRET using synthetic peptides labelled with both donor and acceptor fluorophores (Z-LYTE, Life Technologies, Paisley, UK).
The inhibitory activities of compounds of the invention against the p38 MAPKα isoform (MAPK14: Life Technologies), were evaluated indirectly by determining the level of activation/phosphorylation of the target peptide of the p38 MAPKα down-stream molecule, MAPKAP-K2. The enzyme (40 ng/mL, 2.5 μL) was incubated with the test compound (2.5 μL of either 40 μg/mL, 12 μg/mL, 4 μg/mL, 1.2 μg/mL, 0.4 μg/mL, 0.12 μg/mL, 0.04 μg/mL, 0.012 μg/mL, 0.004 μg/mL or 0.0012 μg/mL) for 2 h at RT. […] Development reagent (protease, 5 μL) was added for 1 h prior to detection in a fluorescence microplate reader (EnVision, Perkin Elmer, Waltham, Mass., USA).
(§2) In all cases, the site-specific protease cleaves non-phosphorylated peptide only and eliminates the FRET signal. Phosphorylation levels of each reaction were calculated using the ratio of coumarin emission (donor) over fluorescein emission (acceptor), for which low ratios indicate high phosphorylation and high ratios indicate low phosphorylation levels.

p38MAPKγ (MAPK12) = target: T2, p38MAPKγ (MAPK12) (Homo sapiens, UniProt P53778); assay: p38 MAPKγ enzyme inhibition (Z-LYTE FRET); format: biochemical; settings: Table 2B, unit inferred; read-out: p38 MAPKγ (Enzyme Profile)
T2 construct: purchased Life Technologies
T2 sequence (P53778 1-367): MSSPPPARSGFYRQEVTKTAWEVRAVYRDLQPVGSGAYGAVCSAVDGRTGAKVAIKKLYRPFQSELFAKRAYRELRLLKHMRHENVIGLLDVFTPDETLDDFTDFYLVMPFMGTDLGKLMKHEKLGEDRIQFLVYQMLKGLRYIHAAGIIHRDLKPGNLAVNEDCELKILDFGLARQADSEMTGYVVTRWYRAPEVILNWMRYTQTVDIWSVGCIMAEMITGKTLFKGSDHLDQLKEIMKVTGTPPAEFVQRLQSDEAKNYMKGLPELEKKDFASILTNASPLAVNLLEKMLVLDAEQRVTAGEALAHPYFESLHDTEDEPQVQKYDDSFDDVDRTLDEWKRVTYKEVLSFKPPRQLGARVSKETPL
Procedure: as §1
The inhibitory activities of compounds of the invention against p38MAPKγ (MAPK12: Life Technologies), were evaluated by determining the level of activation/phosphorylation of the target peptide. The enzyme (800 ng/mL, 2.5 μL) was incubated with the test compound (2.5 μL at either 40 μg/mL, 12 μg/mL, 4 μg/mL, 1.2 μg/mL, 0.4 μg/mL, 0.12 μg/mL, 0.04 μg/mL, 0.012 μg/mL, 0.004 μg/mL or 0.0012 μg/mL) for 2 h at RT. The FRET peptides (8 μM, 2.5 μL), and appropriate ATP solution (2.5 μL, 400 μM) were then added to the enzymes/compound mixtures and incubated for 1 h at RT. Development reagent (protease, 5 μL) was added for 1 h prior to detection in a fluorescence microplate reader (EnVision, Perkin Elmer).
as §2

T1 sequence (Q16539 whole entry, canonical isoform): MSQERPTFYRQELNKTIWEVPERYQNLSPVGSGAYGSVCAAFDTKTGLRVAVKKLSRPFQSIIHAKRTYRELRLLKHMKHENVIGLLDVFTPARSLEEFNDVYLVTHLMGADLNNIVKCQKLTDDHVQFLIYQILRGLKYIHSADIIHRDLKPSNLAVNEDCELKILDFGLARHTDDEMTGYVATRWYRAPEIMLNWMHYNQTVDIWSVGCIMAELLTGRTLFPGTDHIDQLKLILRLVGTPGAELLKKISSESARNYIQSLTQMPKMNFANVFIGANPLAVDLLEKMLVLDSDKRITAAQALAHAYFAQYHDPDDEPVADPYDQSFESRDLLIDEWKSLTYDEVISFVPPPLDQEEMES

Row | SMILES | IC50 [1] [nM] | IC50 (p38MAPKγ (MAPK12)) [nM]
1 | COCc1ccc(-n2nc(C(C)(C)C)cc2NC(=O)Nc2ccc(OCc3ccnc(Nc4cnccn4)c3)c3ccccc23)cc1 [Example 64] | 9.7 | 39
2 | CO[C@@H]1CCN(C(=O)c2cnc(Nc3cc(COc4ccc(NC(=O)Nc5cc(C(C)(C)C)nn5-c5ccc(C)cc5)c5ccccc45)ccn3)cn2)C1 [Example 66] | 28 | 319
3 | CO[C@H]1CCN(C(=O)c2cnc(Nc3cc(COc4ccc(NC(=O)Nc5cc(C(C)(C)C)nn5-c5ccc(C)cc5)c5ccccc45)ccn3)cn2)C1 [Example 67] | 39 | 345
4 | Cc1ccc(-n2nc(C(C)(C)C)cc2NC(=O)Nc2ccc(OCc3ccnc(Nc4cncc(C(C)C)n4)c3)c3ccccc23)cc1 [Example 68] | 132 | 624
5 | Cc1cccc(-n2nc(C(C)(C)C)cc2NC(=O)Nc2ccc(OCc3ccnc(Nc4cnc(C(=O)N5CC[C@@H](O)C5)cn4)c3)c3ccccc23)c1 [Example 69] | 8 | 106
6 | CCc1cncc(Nc2cc(COc3ccc(NC(=O)Nc4cc(C(C)(C)C)nn4-c4ccc(C)c(OC)c4)c4ccccc34)ccn2)n1 [Example 70] | 70 | 372
7 | COCc1cccc(-n2nc(C(C)(C)C)cc2NC(=O)Nc2ccc(OCc3ccnc(Nc4cnc(C(=O)N5CCCC5)cn4)c3)c3ccccc23)c1 [Example 71] | 24 | 272
8 | Cc1ccc(-n2nc(C(C)(C)C)cc2NC(=O)Nc2ccc(OCc3ccnc(Nc4cnc(C(=O)NCCC(C)(C)O)cn4)c3)c3ccccc23)cc1 [Example 72] | 11 | 118
9 | COCCN(CCOC)C(=O)c1cnc(Nc2cc(COc3ccc(NC(=O)Nc4cc(C(C)(C)C)nn4-c4ccc(C)cc4)c4ccccc34)ccn2)cn1 [Example 73] | 19 | 259
10 | COC(C)(C)CNC(=O)c1cnc(Nc2cc(COc3ccc(NC(=O)Nc4cc(C(C)(C)C)nn4-c4ccc(C)cc4)c4ccccc34)ccn2)cn1 [Example 74] | 43 | 482
11 | CC(C)(C)c1cc(NC(=O)Nc2ccc(OCc3ccnc(Nc4cnccn4)c3)c3ccccc23)n(-c2ccccc2)n1 [Example 75] | 17 | 179
12 | COCCN(CCOC)C(=O)c1cnc(Nc2cc(COc3ccc(NC(=O)Nc4cc(C(C)(C)C)nn4-c4cccc(C)c4)c4ccccc34)ccn2)cn1 [Example 76] | 15 | 148
13 | CN(C)c1ccc(-n2nc(C(C)(C)C)cc2NC(=O)Nc2ccc(OCc3ccnc(Nc4cnccn4)c3)c3ccccc23)cn1 [Example 78] | 21 | 422
14 | Cc1ccc(-n2nc(C(C)(C)C)cc2NC(=O)Nc2ccc(OCc3ccnc(Nc4cnc(C(=O)NCCN5CCCCC5)cn4)c3)c3ccccc23)cc1 [Example 79] | < 0.4 | 101
15 | Cc1ccc(-n2nc(C(C)(C)C)cc2NC(=O)Nc2ccc(OCc3ccnc(Nc4cnc(C(=O)NC5CCN(C)CC5)cn4)c3)c3ccccc23)cc1 [Example 80] | < 0.41 | 54
16 | COc1ccc(-n2nc(C(C)(C)C)cc2NC(=O)Nc2ccc(OCc3ccnc(Nc4cncc(N(C)C)n4)c3)c3ccccc23)cc1 [Example 104, 1-(3-(tert-butyl)-1-(4-methoxyphenyl)-1H-pyrazol-5-yl)-3-(4-((2-((6-(dimethyl-amino)pyrazin-2-yl)amino)pyridin-4-yl)methoxy)naphthalen-1-yl)urea] | 8.9 | 223
17 | COc1cnc(Nc2cc(COc3ccc(NC(=O)Nc4cc(C(C)(C)C)nn4-c4ccc(C)cc4)c4ccccc34)ccn2)cn1 [Example 105, 1-(3-(tert-butyl)-1-(p-tolyl)-1H-pyrazol-5-yl)-3-(4-((2-((5-methoxypyrazin-2-yl)amino)pyridin-4-yl)methoxy)naphthalen-1-yl) urea] | < 1.59 | 4560
18 | Cc1ccc(-n2nc(C(C)(C)C)cc2NC(=O)Nc2ccc(OCc3ccnc(Nc4cncc(N)n4)c3)c3ccccc23)cc1 [Example 106, 1-(4-((2-((6-aminopyrazin-2-yl)amino)pyridin-4-yl)methoxy)naphthalen-1-yl)-3-(3-(tert-butyl)-1-(p-tolyl)-1H-pyrazol-5-yl)urea] | 3.4 | 401
19 | COCC(=O)Nc1cncc(Nc2cc(COc3ccc(NC(=O)Nc4cc(C(C)(C)C)nn4-c4ccc(C)cc4)c4ccccc34)ccn2)n1 [Example 107, N-(6-((4-(((4-(3-(3-(tert-butyl)-1-(p-tolyl)-1H-pyrazol-5-yl)ureido)naphthalen-1-yl)oxy)methyl)pyridin-2-yl)amino)pyrazin-2-yl)-2-methoxyacetamide] | 27 | 5730
20 | COc1ccc(-n2nc(C(C)(C)C)cc2NC(=O)Nc2ccc(OCc3ccnc(Nc4cncc(OC)n4)c3)c3ccccc23)cc1 [Example 108, 1-(3-(tert-butyl)-1-(4-methoxyphenyl)-1H-pyrazol-5-yl)-3-(4-((2-((6-methoxypyrazin-2-yl)amino)pyridin-4-yl)methoxy)naphthalen-1-yl)urea] | 17 | 15500
21 | COc1cncc(Nc2cc(COc3ccc(NC(=O)Nc4cc(C(C)(C)C)nn4-c4ccc(C)s4)c4ccccc34)ccn2)n1 [Example 109, 1-(3-(tert-butyl)-1-(5-methylthiophen-2-yl)-1H-pyrazol-5-yl)-3-(4-((2-((6-methoxypyrazin-2-yl)amino)pyridin-4-yl)methoxy)naphthalen-1-yl) urea] | 115 | 1330
22 | COc1cncc(Nc2cc(COc3ccc(NC(=O)Nc4cc(C(C)(C)C)nn4-c4ccc(CO)cc4)c4ccccc34)ccn2)n1 [Example 110, 1-(3-(tert-butyl)-1-(4-(hydroxymethyl)phenyl)-1H-pyrazol-5-yl)-3-(4-((2-((6-methoxypyrazin-2-yl)amino)pyridin-4-yl)methoxy)naphthalen-1-yl) urea] | 1.6 | 23
23 | Cc1ccc(-n2nc(C(C)(C)C)cc2NC(=O)Nc2ccc(OCc3ccnc(Nc4cncc(N(C)C)n4)c3)c3ccccc23)s1 [Example 111, 1-(3-(tert-butyl)-1-(5-methylthiophen-2-yl)-1H-pyrazol-5-yl)-3-(4-((2-((6-(dimethylamino)pyrazin-2-yl)amino)pyridin-4-yl)methoxy)naphthalen-1-yl)urea] | 33 | 125
24 | Cc1cc(-n2nc(C(C)(C)C)cc2NC(=O)Nc2ccc(OCc3ccnc(Nc4cncc(N(C)C)n4)c3)c3ccccc23)cs1 [Example 112, 1-(3-(tert-butyl)-1-(5-methylthiophen-3-yl)-1H-pyrazol-5-yl)-3-(4-((2-((6-(dimethylamino)pyrazin-2-yl)amino)pyridin-4-yl)methoxy)naphthalen-1-yl) urea] | 43 | 277
25 | COc1cncc(Nc2cc(COc3ccc(NC(=O)Nc4cc(C(C)(C)C)nn4-c4csc(C)c4)c4ccccc34)ccn2)n1 [Example 113, 1-(3-(tert-butyl)-1-(5-methylthiophen-3-yl)-1H-pyrazol-5-yl)-3-(4-((2-((6-methoxypyrazin-2-yl)amino)pyridin-4-yl)methoxy)naphthalen-1-yl) urea] | 37 | 3200
26 | CN(C)c1cncc(Nc2cc(COc3ccc(NC(=O)Nc4cc(C(C)(C)C)nn4-c4ccc(CO)cc4)c4ccccc34)ccn2)n1 [Example 114, 1-(3-(tert-butyl)-1-(4-(hydroxymethyl)phenyl)-1H-pyrazol-5-yl)-3-(4-((2-((6-(dimethylamino)pyrazin-2-yl)amino)pyridin-4-yl)methoxy)naphthaien-1-yl)urea] | 2 | 26
27 | CN(C)c1cncc(Nc2cc(COc3ccc(NC(=O)Nc4cc(C(C)(C)C)nn4-c4ccc(O)cc4)c4ccccc34)ccn2)n1 [Example 115, 1-(3-(tert-butyl)-1-(4-hydroxyphenyl)-1H-pyrazol-5-yl)-3-(4-((2-((6-(dimethyl-amino)pyrazin-2-yl)amino)pyridin-4-yl)methoxy)naphthalen-1-yl)urea] | 7.5 | 725
